# Measured values as given in US20250059156A1, “THERAPEUTIC ALKALOID COMPOUNDS” (Sensorium Therapeutics, Inc., priority 2022, published 2025).
# Tests used:
# [1] = in vivo; cited from earlier work
# C57/Bl6 mice = assay: Behavioral evaluation assay (SmartCube test); assay type: in vivo; conditions: FIG. 1
# Protocol: The CNS-like activity of test compounds after acute intraperitoneal administration was evaluated in naïve C57/Bl6 mice using the SmartCube® test.
# Male C57/Bl6 mice from Taconic Laboratories (Germantown, NY) were used. Upon receipt, mice were group-housed in Optimice® ventilated cages with 4 mice per cage. Mice were acclimated to the colony room for at least one week prior to test, and subsequently tested at approximately 8-9 weeks of age. All animals were examined, handled, and weighed prior to initiation of the study to assure adequate health and suitability and to minimize nonspecific stress associated with manipulation. During the course of the study, 12/12 light/dark cycles were maintained. The room temperature was 20-23° C. with a relative humidity maintained between 30-70%. Chow and water were provided ad libitum for the duration of the study.
# Test compounds were formulated in 5% Pharmasolve, 30% P3 (1:1:1 PEG200, PEG400, propylene glycol) and 65% saline. […]
# For class and subclass analysis, a reference dataset has been built from hundreds of drug doses in multiple drug classes plus a control group. […] Multiple analyses of the data was performed to quantitatively produce independent predictions of drug class, and drug subclass. The behavioral signatures of the test drug were evaluated using these classifiers to predict potential therapeutic utility.
# SERT = SERT (Homo sapiens (Human), UniProt P31645); assay: SERT inhibition assay (Neurotransmitter Transporter Fluorescence assay); assay type: cell-based; conditions: class symbols; legend in nM/micromolar
# Sequence of SERT (P31645 whole entry, species assumed): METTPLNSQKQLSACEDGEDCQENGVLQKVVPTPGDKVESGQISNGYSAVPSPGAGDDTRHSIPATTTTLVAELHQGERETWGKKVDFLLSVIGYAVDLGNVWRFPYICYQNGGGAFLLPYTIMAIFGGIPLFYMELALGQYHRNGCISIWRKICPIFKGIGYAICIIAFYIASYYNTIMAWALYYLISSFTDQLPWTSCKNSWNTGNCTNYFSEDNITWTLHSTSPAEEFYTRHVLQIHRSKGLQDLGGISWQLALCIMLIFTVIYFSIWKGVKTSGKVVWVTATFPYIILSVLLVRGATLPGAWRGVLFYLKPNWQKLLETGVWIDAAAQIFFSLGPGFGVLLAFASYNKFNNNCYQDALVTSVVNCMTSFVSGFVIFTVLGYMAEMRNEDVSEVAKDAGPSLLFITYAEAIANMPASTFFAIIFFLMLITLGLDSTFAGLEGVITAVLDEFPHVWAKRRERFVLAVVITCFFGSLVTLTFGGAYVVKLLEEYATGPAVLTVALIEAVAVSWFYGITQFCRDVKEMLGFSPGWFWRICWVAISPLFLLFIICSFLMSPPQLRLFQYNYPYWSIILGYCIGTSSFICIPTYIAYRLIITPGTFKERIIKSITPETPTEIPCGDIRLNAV
# Protocol: SERT inhibition was measured using a Neruotransmitter Transportation Fluorescence assay. Briefly, stable 5HHH cells were prepared in a 384 microwell plate. Compounds were prepared by in assay buffer (20 mM HEPES, 0.1% BSA). The compounds were added to the plated cells and incubated for 30 minutes at 37° C. 25 μL of dye solution (Molecular Devices Neurotransmitter Transporter Uptake Assay Kit) was added per well and incubated for 30 minutes at 37° C. The plates were then read on a plate reader.
# PDE4C1 = PDE4C1 (Homo sapiens (Human), UniProt Q08493); assay: PDE4 percent inhibition assay; assay type: biochemical; conditions: for inhibition at 10 µM: read-out: PDE4 Isoform % Inhibition @ 10 μM PDE4C1
# Sequence of PDE4C1 (Q08493 whole entry, canonical isoform): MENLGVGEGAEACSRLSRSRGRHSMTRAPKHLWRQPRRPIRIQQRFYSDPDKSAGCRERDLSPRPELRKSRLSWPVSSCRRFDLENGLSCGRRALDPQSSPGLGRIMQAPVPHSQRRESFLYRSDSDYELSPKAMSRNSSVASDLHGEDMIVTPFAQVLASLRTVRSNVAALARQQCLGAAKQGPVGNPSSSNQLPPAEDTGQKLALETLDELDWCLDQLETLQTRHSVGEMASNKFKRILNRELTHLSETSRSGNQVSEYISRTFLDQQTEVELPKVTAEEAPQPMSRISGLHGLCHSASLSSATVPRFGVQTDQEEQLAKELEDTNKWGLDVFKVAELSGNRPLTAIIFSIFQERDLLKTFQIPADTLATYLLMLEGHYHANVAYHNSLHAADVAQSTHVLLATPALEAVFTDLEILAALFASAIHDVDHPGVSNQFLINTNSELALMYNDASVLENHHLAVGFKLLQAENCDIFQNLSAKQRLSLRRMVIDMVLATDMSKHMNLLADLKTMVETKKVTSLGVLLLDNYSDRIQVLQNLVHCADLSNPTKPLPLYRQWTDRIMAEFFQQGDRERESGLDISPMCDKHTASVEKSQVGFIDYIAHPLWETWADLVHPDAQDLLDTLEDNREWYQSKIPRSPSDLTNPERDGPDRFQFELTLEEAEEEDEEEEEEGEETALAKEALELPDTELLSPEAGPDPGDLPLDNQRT
# Protocol: (§1) PDE4 assay kit (BPS Bioscience, San Diego, CA), as described below.
# (§2) • 1) Dilute 20 μM FAM-Cyclic-3′, 5′-AMP stock 100-fold with PDE buffer to make a 200 nM solution. Make only sufficient quantity needed for the assay; store remaining 20 μM stock solution in aliquots at −20° C. • 2) Add 25 μl of FAM-Cyclic-3′,5′-AMP (200 nM) to each well designated “Positive Control”, “Test Inhibitor”, and “Substrate Control”. • 3) Add 20 μl of PDE assay buffer to each well designated “Substrate Control” and 45 μl of PDE assay buffer to each well designated “Blank”. • 4) Add 5 μl of inhibitor solution to each well designated “Test Inhibitor”. For the wells labeled “Positive Control”, “Substrate Control” and “Blank”, add 5 μl of the same solution without inhibitor (inhibitor buffer). • 5) Thaw PDE on ice. Upon first thaw, briefly spin tube containing enzyme to recover the full contents of the tube. • 6) Dilute PDE4 in PDE buffer to 7.5 pg/μl (0.15 ng/reaction)*. Initiate reaction by adding 20 μl of PDE4 (7.5 pg/μl) to the wells designated “Positive Control” and “Test Inhibitor.” • 7) Incubate at room temperature for 1 hour.
# (§3) • 1) Mix binding agent thoroughly and dilute binding agent 1:100 with binding agent diluent. • 2) Add 100 μl diluted binding agent to each microwell. Incubate at room temperature for 1 hour with slow shaking. • 3) Read the fluorescent polarization of the sample in a microtiter-plate reader equipped for the measurement of fluorescence polarization, capable of excitation at wavelengths ranging from 485±5 nm and detection of emitted light ranging from 528±10 nm. Blank value is subtracted from all other values.
# (§4) 100 µM dilutions of the test compounds were prepared in assay buffer (10% DMSO concentration) and 5 μl of the dilution was added to a 50 μl reaction so that the final concentration of DMSO is 1% in all of reactions.
# (§5) The enzymatic reactions were conducted at room temperature for 60 minutes in a 50 μl mixture containing PDE assay buffer, 100 nM FAM-cAMP, a PDE enzyme and the test compound.
# (§6) After the enzymatic reaction, 100 Is of a binding solution (1:100 dilution of the binding agent with the binding agent diluent) was added to each reaction and the reaction was performed at room temperature for 60 minutes.
# (§7) Fluorescence intensity was measured at an excitation of 485 nm and an emission of 528 nm using a Tecan Infinite M1000 microplate reader.
# PDE4A1A = PDE4A1A (Homo sapiens (Human), UniProt P27815); assay: PDE4 percent inhibition assay; assay type: biochemical; conditions: for inhibition at 10 µM: read-out: PDE4 Isoform % Inhibition @ 10 μM PDE4A1A
# Sequence of PDE4A1A (P27815 other isoform, or with tags, fused parts or gaps): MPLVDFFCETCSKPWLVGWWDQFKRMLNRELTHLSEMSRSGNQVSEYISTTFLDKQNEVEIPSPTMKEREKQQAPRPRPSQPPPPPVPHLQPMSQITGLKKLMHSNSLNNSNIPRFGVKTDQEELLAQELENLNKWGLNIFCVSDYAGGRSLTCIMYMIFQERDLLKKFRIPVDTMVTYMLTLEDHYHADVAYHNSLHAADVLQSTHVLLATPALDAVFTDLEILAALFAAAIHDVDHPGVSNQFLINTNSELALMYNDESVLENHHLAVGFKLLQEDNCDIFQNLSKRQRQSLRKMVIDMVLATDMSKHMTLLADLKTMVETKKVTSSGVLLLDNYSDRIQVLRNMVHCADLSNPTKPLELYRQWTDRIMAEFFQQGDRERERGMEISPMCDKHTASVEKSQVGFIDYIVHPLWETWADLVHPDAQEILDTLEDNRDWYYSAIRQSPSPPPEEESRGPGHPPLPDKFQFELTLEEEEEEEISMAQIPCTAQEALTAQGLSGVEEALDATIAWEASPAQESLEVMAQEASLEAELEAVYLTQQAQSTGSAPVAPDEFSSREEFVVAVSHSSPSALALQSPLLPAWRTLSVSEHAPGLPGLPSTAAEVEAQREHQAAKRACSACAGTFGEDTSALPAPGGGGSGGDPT
# Protocol: as §1, §2, §3, §4, §5, §6, §7
# PDE4B2 = PDE4B2 (Homo sapiens (Human), UniProt Q07343); assay: PDE4 percent inhibition assay; assay type: biochemical; conditions: for inhibition at 10 µM: read-out: PDE4 Isoform % Inhibition @ 10 μM PDE4B2
# Sequence of PDE4B2 (Q07343 other isoform, or with tags, fused parts or gaps): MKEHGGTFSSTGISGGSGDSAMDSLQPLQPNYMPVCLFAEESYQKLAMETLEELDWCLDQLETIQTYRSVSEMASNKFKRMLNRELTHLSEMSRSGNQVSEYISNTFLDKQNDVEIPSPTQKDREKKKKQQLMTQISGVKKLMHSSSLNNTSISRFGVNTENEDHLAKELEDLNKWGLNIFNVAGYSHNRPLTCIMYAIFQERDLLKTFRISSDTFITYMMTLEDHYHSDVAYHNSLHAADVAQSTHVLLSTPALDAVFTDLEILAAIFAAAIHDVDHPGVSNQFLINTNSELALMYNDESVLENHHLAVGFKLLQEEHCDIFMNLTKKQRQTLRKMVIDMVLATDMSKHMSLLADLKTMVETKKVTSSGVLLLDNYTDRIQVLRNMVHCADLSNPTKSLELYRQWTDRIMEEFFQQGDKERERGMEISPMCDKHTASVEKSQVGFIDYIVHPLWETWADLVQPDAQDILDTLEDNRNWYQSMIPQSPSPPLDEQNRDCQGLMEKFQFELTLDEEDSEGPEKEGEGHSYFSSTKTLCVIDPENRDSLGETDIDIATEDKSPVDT
# Protocol: as §1, §2, §3, §4, §5, §6, §7
# PDE4D2 = PDE4D2 (Homo sapiens (Human), UniProt Q08499); assay: PDE4 percent inhibition assay; assay type: biochemical; conditions: for inhibition at 10 µM: read-out: PDE4 Isoform % Inhibition @ 10 μM PDE4D2
# Sequence of PDE4D2 (Q08499 303-809, change not shown): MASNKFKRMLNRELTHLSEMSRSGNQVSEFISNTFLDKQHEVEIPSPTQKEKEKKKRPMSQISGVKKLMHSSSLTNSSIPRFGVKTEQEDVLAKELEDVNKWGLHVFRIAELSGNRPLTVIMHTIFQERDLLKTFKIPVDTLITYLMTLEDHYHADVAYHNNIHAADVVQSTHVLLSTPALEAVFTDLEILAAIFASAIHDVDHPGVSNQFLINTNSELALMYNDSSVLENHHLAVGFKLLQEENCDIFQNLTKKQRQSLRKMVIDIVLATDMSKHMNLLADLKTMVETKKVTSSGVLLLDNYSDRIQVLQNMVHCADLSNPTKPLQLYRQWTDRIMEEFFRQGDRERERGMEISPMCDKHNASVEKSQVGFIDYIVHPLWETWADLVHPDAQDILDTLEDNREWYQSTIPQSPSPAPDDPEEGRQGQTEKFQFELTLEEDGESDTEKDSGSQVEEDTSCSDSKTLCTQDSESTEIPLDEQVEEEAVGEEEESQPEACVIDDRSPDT
# Protocol: as §1, §2, §3, §4, §5, §6, §7
# 5-HT transporter (SERT) = 5-HT transporter (SERT) (Homo sapiens (Human), UniProt P31645); conditions: concentration response curve; cited from earlier work
Structure (SMILES),IC50 (SERT),PDE4 Isoform % Inhibition @ 10 μM PDE4C1 (PDE4C1),PDE4 Isoform % Inhibition @ 10 μM PDE4A1A (PDE4A1A),PDE4 Isoform % Inhibition @ 10 μM PDE4B2 (PDE4B2),PDE4 Isoform % Inhibition @ 10 μM PDE4D2 (PDE4D2),also measured
COc1ccc([C@@]23CCC(=O)C[C@@H]2N(C)CC3)cc1OC [(−) mesembrine],,,,,,half-life in plasma [1]: less than 2 hours
"COc1ccc([C@@]23CC[C@@H](O)C[C@@H]2N(C)CC3)cc1OC [Compound 018, (3aS,6R,7aS)-3a-(3,4-dimethoxyphenyl)-1-methyloctahydro-1H-indol-6-ol]",,,,,,behavioral phenotype compared to Compound 001 (C57/Bl6 mice): different behavioral phenotype classification
COc1ccc([C@]23CCN(C)[C@H]2[C@@H]2CCC[C@H]3CC2=O)cc1OC [Compound 218],< 50 nM,D (D if the percent inhibition is less than 30%),D (D if the percent inhibition is less than 30%),D (D if the percent inhibition is less than 30%),D (D if the percent inhibition is less than 30%),
"COc1ccc([C@@]23CC[C@@H](N4CCOCC4)C[C@@H]2N(C)CC3)cc1OC [Compound 109, 4-((3aS,6R,7aS)-3a-(3,4-dimethoxyphenyl)-1-methyloctahydro-1H-indol-6-yl)morpholine]",100 to 500 nM,,,,,inhibition at 10 µM (PDE4C1): < 30%; inhibition at 10 µM (PDE4A1A): < 30%; inhibition at 10 µM (PDE4B2): < 30%; inhibition at 10 µM (PDE4D2): < 30%
COc1ccc([C@@]23CCN(C)[C@@H]2CC(=O)C[C@@H]3c2ccccc2)cc1OC [Compound 206],> 1000 nM,B (B if the percent inhibition is 50-70%),A (A if the % inhibition is greater than or equal to 70%),A (A if the % inhibition is greater than or equal to 70%),A (A if the % inhibition is greater than or equal to 70%),
COc1ccc([C@]23CCN(C)[C@H]2[C@H]2C[C@@H]3CC2=O)cc1OC [Compound 215],50 to 100 nM,D (D if the percent inhibition is less than 30%),D (D if the percent inhibition is less than 30%),D (D if the percent inhibition is less than 30%),D (D if the percent inhibition is less than 30%),
COc1ccc([C@@]23CCN(C)[C@@H]2[C@@H]2C[C@H]3CC2=O)cc1OC [Compound 216],50 to 100 nM,C (C is the percent inhibition is 30-50%),D (D if the percent inhibition is less than 30%),D (D if the percent inhibition is less than 30%),D (D if the percent inhibition is less than 30%),
"COc1ccc([C@@]23CC[C@H](n4cccn4)C[C@@H]2N(C)CC3)cc1OC [Compound 102, (3aS,6S,7aS)-3a-(3,4-dimethoxyphenyl)-1-methyl-6-(1H-pyrazol-1-yl)octahydro-1H-indole]",< 50 nM,,,,,inhibition at 10 µM (PDE4C1): < 30%; inhibition at 10 µM (PDE4A1A): < 30%; inhibition at 10 µM (PDE4B2): < 30%; inhibition at 10 µM (PDE4D2): < 30%
"COc1ccc([C@@]23CC[C@@H](N4CCCC4=O)C[C@@H]2N(C)CC3)cc1OC [Compound 110, 1-((3aS,6R,7aS)-3a-(3,4-dimethoxyphenyl)-1-methyloctahydro-1H-indol-6-yl)pyrrolidin-2-one]",< 50 nM,,,,,inhibition at 10 µM (PDE4C1): < 30%; inhibition at 10 µM (PDE4A1A): < 30%; inhibition at 10 µM (PDE4B2): < 30%; inhibition at 10 µM (PDE4D2): < 30%
COc1ccc([C@@]23C=CC(=O)C[C@@H]2N(C)CC3)cc1OC [Mesembrenone],,,,,,5-HT transporter (SERT) nH (5-HT transporter (SERT)): 1.0
COc1ccc([C@]23CCN(C)[C@H]2CC(=O)C[C@H]3c2ccccc2)cc1OC [Compound 207],> 1000 nM,B (B if the percent inhibition is 50-70%),B (B if the percent inhibition is 50-70%),B (B if the percent inhibition is 50-70%),B (B if the percent inhibition is 50-70%),
